Values quoted from earlier work in patent publication US20250177336A1 (RX BANDZ, INC., priority 2023, published 2025).

Settings: zwitterionic form predominates

NC[C@H]1CC[C@H](C(=O)O)CC1 [TXA, Tranexamic acid]
isoelectric point: ~7.3 pH
